In patent US8779142B2, “Azabicyclo compound and salt thereof” (Taiho Pharmaceutical Co., Ltd., priority 2009, dated 2014):
pIC50: −log10 of the molar value.

Experiments:
[1] = molecular target: human HSP90 alpha protein (HSP90 N-terminal protein, amino acids 2-236) (Homo sapiens (Human), UniProt P07900); assay: Measurement of HSP90-binding activity (AlphaScreen competitive assay, biotin-labeled geldanamycin); conditions: concentration inhibiting binding of biotin-labeled geldanamycin (40 nM) to purified HSP90 to 50% of control; read-out: HSP-binding activity IC50
SK-BR-3 cells = assay: Measurement of cell growth inhibition (crystal violet staining method); type: cell-based; conditions: Homo sapiens
[2] = breast cancer SK-BR-3 cells, 72 hr culture with test substance

Row | pIC50 [1] | pIC50 (SK-BR-3 cells; [2]) | SMILES | pIC50 (SK-BR-3 cells; SK-BR-3, 72 h)
1 | 6.48 | 7.00 | CC(C)c1nn(-c2ccc(C(N)=O)c(NCCN3CCOCC3)c2)c2nccc(-c3cnc4ccccc4c3)c12 [Example 31, 4-{3-Isopropyl-4-(quinolin-3-yl)-1H-pyrazolo[3,4-b]pyridin-1-yl}-2-(2-morpholinoethylamino)benzamide] | –
2 | 6.24 | 7.30 | CC(C)c1nn(-c2ccc(C(N)=O)c(Nc3ccc(C(=O)N4CCCC4)cc3)c2)c2nccc(-c3cnc4ccccc4c3)c12 [Example 34, 4-{3-Isopropyl-4-(quinolin-3-yl)-1H-pyrazolo[3,4-b]pyridin-1-yl}-2-{4-(pyrrolidine-1-carbonyl)phenylamino}benzamide] | –
3 | 6.57 | 7.05 | Cc1cn(-c2ccc(C(N)=O)c(N[C@H]3CC[C@H](O)CC3)c2)c2nccc(-c3cnc4ccccc4c3)c12 [Example 40, 2-(Trans-4-hydroxycyclohexylamino)-4-{3-methyl-4-(quinolin-3-yl)-1H-pyrrolo[2,3-b]pyridin-1-yl}benzamide] | –
4 | 7.00 | 8.00 | NC(=O)c1ccc(-n2cc(C(F)(F)F)c3c(-c4cnc5ccccc5c4)ccnc32)cc1N[C@H]1CC[C@H](O)CC1 [Example 43, 2-(Trans-4-hydroxycyclohexylamino)-4-{4-(quinolin-3-yl)-3-(trifluoromethyl)-1H-pyrrolo[2,3-b]pyridin-1-yl}benzamide] | –
5 | 6.46 | 6.70 | Cc1cn(-c2ccc(C(N)=O)c(NC3CCOCC3)c2)c2nccc(-c3cnc4ccccc4c3)c12 [Example 53, 2-(Tetrahydro-2H-pyran-4-ylamino)-4-{3-methyl-4-(quinolin-3-yl)-1H-pyrrolo[2,3-b]pyridin-1-yl}benzamide] | –
6 | 6.60 | 7.00 | CCc1cn(-c2ccc(C(N)=O)c(NC3CCN(C)CC3)c2)c2nccc(-c3cnc4ccccc4c3)c12 [Example 71, 4-{3-Ethyl-4-(quinolin-3-yl)-1H-pyrrolo[2,3-b]pyridin-1-yl}-2-(1-methylpiperidin-4-ylamino)benzamide] | –
7 | 6.23 | 6.44 | CCc1cn(-c2ccc(C(N)=O)c(NCCN3CCOCC3)c2)c2nccc(-c3cnc4ccccc4c3)c12 [Example 73, 4-{3-Ethyl-4-(quinolin-3-yl)-1H-pyrrolo[2,3-b]pyridin-1-yl}-2-(2-morpholinoethylamino)benzamide] | –
8 | 6.47 | 6.57 | CCc1cn(-c2ccc(C(N)=O)c(NCCCCO)c2)c2nccc(-c3cnc4ccccc4c3)c12 [Example 74, 4-{3-Ethyl-4-(quinolin-3-yl)-1H-pyrrolo[2,3-b]pyridin-1-yl}-2-(4-hydroxybutylamino)benzamide] | –
9 | 6.51 | 6.62 | CCNCCNc1cc(-n2cc(CC)c3c(-c4cnc5ccccc5c4)ccnc32)ccc1C(N)=O [Example 75, 4-{3-Ethyl-4-(quinolin-3-yl)-1H-pyrrolo[2,3-b]pyridin-1-yl}-2-{2-(ethylamino)ethylamino}benzamide] | –
10 | 6.72 | 7.40 | CC(C)c1nn(-c2ccc(C(N)=O)c(NC3CCNCC3)c2)c2nccc(-c3cnc4ccccc4c3)c12 [Example 76, 4-{3-Isopropyl-4-(quinolin-3-yl)-1H-pyrazolo[3,4-b]pyridin-1-yl}-2-(piperidin-4-ylamino)-benzamide] | –
11 | 6.60 | 7.70 | CC(C)c1nn(-c2ccc(C(N)=O)c(NC3CCN(C(=O)CN)CC3)c2)c2nccc(-c3cnc4ccccc4c3)c12 [Example 79, 2-{1-(2-Aminoacetyl)piperidin-4-ylamino}-4-{3-isopropyl-4-(quinolin-3-yl)-1H-pyrazolo[3,4-b]pyridin-1-yl}benzamide] | –
12 | 6.33 | 6.54 | Cc1cc(C(N)=O)ccc1-n1nc(C(C)C)c2c(-c3cnc4ccccc4c3)ccnc21 [Example 80, 4-{3-Isopropyl-4-(quinolin-3-yl)-1H-pyrazolo[3,4-b]pyridin-1-yl}-3-methylbenzamide] | –
13 | 5.99 | 6.20 | Cc1cc(-n2nc(C(C)C)c3c(-c4cnc5ccccc5c4)ccnc32)ccc1C(N)=O [Example 81, 4-{3-Isopropyl-4-(quinolin-3-yl)-1H-pyrazolo[3,4-b]pyridin-1-yl}-2-methylbenzamide] | –

Continued, molecule first:

Row | SMILES | pIC50 [1] | pIC50 (SK-BR-3 cells; [2]) | pIC50 (SK-BR-3 cells; SK-BR-3, 72 h)
14 | CC(C)c1nn(-c2ccc(C(N)=O)c(Nc3ccc(N4CCOCC4)cc3)c2)c2nccc(-c3cnc4ccccc4c3)c12 [Example 33, 4-{3-Isopropyl-4-(quinolin-3-yl)-1H-pyrazolo[3,4-b]pyridin-1-yl}-2-(4-morpholinophenylamino)benzamide] | 5.94 | 7.15 | –
15 | CC(C)c1nn(-c2ccc(C(N)=O)c(Nc3ccc(CN4CCCC4)cc3)c2)c2nccc(-c3cnc4ccccc4c3)c12 [Example 35, 4-{3-Isopropyl-4-(quinolin-3-yl)-1H-pyrazolo[3,4-b]pyridin-1-yl}-2-{4-(pyrrolidin-1-ylmethyl)phenylamino}benzamide] | 5.82 | 6.55 | –
16 | CC(C)c1nn(-c2ccc(C(N)=O)c(N[C@H]3CC[C@H](O)CC3)c2)c2nccc(-n3ccnc3)c12 [Example 36, 4-{4-(1H-Imidazol-1-yl)-3-isopropyl-1H-pyrazolo[3,4-b]pyridin-1-yl}-2-(trans-4-hydroxycyclohexylamino)benzamide] | 5.73 | 5.49 | –
17 | CC(C)c1nn(-c2ccc(C(N)=O)c(N[C@H]3CC[C@H](O)CC3)c2)c2nccc(-n3cnc(-c4ccccc4)c3)c12 [Example 37, 2-(Trans-4-hydroxycyclohexylamino)-4-{3-isopropyl-4-(4-phenyl-1H-imidazol-1-yl)-1H-pyrazolo[3,4-b]pyridin-1-yl}benzamide] | 6.60 | 7.00 | –
18 | CC(C)c1nn(-c2ccc(C(N)=O)cc2Cl)c2nccc(-c3cnc4ccccc4c3)c12 [Example 38, 3-Chloro-4-{3-isopropyl-4-(quinolin-3-yl)-1H-pyrazolo[3,4-b]pyridin-1-yl}benzamide] | 6.29 | 6.17 | –
19 | CCc1cn(-c2ccc(C(N)=O)c(N[C@H]3CC[C@H](O)CC3)c2)c2nccc(-c3cnc4ccccc4c3)c12 [Example 41, 4-{3-Ethyl-4-(quinolin-3-yl)-1H-pyrrolo[2,3-b]pyridin-1-yl}-2-(trans-4-hydroxycyclohexylamino)benzamide] | 6.92 | 7.52 | –
20 | CCc1cn(-c2ccc(C(N)=O)c(N[C@H]3CC[C@H](OC(=O)CN)CC3)c2)c2nccc(-c3cnc4ccccc4c3)c12 [Example 42, Trans-4-{2-carbamoyl-5-{3-ethyl-4-(quinolin-3-yl)-1H-pyrrolo[2,3-b]pyridin-1-yl}phenylamino}cyclohexyl-2-aminoacetate dimethanesulfonate] | 6.72 | – | 7.52
21 | NCC(=O)O[C@H]1CC[C@H](Nc2cc(-n3cc(C(F)(F)F)c4c(-c5cnc6ccccc6c5)ccnc43)ccc2C(N)=O)CC1 [Example 44, Trans-4-{2-carbamoyl-5-{4-(quinolin-3-yl)-3-(trifluoromethyl)-1H-pyrrolo[2,3-b]pyridin-1-yl}phenylamino}cyclohexyl-2-aminoacetate dimethanesulfonate] | 6.89 | – | 8.00
22 | CCCc1cn(-c2ccc(C(N)=O)c(N[C@H]3CC[C@H](O)CC3)c2)c2nccc(-c3cnc4ccccc4c3)c12 [Example 45, 2-(Trans-4-hydroxycyclohexylamino)-4-{3-propyl-4-(quinolin-3-yl)-1H-pyrrolo[2,3-b]pyridin-1-yl}benzamide] | 7.05 | 8.00 | –
23 | C=Cc1cn(-c2ccc(C(N)=O)c(N[C@H]3CC[C@H](O)CC3)c2)c2nccc(-c3cnc4ccccc4c3)c12 [Example 46, 2-(Trans-4-hydroxycyclohexylamino)-4-{3-vinyl-4-(quinolin-3-yl)-1H-pyrrolo[2,3-b]pyridin-1-yl}benzamide] | 6.82 | 7.70 | –
24 | Cc1cn(-c2ccc(C(N)=O)c(NCCCCO)c2)c2nccc(-c3cnc4ccccc4c3)c12 [Example 55, 2-(4-Hydroxybutylamino)-4-{3-methyl-4-(quinolin-3-yl)-1H-pyrrolo[2,3-b]pyridin-1-yl}benzamide] | 5.55 | 6.04 | –
25 | Cc1cn(-c2ccc(C(N)=O)c(NCC(C)(C)O)c2)c2nccc(-c3cnc4ccccc4c3)c12 [Example 58, 2-(2-Hydroxy-2-methylpropylamino)-4-{3-methyl-4-(quinolin-3-yl)-1H-pyrrolo[2,3-b]pyridin-1-yl}benzamide] | 6.34 | 6.68 | –
26 | Cc1cn(-c2ccc(C(N)=O)c(NCCCNC(C)C)c2)c2nccc(-c3cnc4ccccc4c3)c12 [Example 60, 2-[3-(Isopropylamino)propylamino]-4-{3-methyl-4-(quinolin-3-yl)-1H-pyrrolo[2,3-b]pyridin-1-yl}benzamide] | 5.86 | 5.82 | –
27 | CC(=O)N[C@H]1CC[C@H](Nc2cc(-n3cc(C)c4c(-c5cnc6ccccc6c5)ccnc43)ccc2C(N)=O)CC1 [Example 62, 2-(Trans-4-acetamidocyclohexylamino)-4-{3-methyl-4-(quinolin-3-yl)-1H-pyrrolo[2,3-b]pyridin-1-yl}benzamide] | 6.21 | 6.68 | –
28 | CCc1cn(-c2ccc(C(N)=O)c(NC3CCCCC3N)c2)c2nccc(-c3cnc4ccccc4c3)c12 (stereo not drawn) [Example 70, 2-(2-Aminocyclohexylamino)-4-{3-ethyl-4-(quinolin-3-yl)-1H-pyrrolo[2,3-b]pyridin-1-yl}benzamide] | 6.64 | 7.10 | –
29 | CCc1cn(-c2ccc(C(N)=O)c(N[C@H]3CC[C@H](N)CC3)c2)c2nccc(-c3cnc4ccccc4c3)c12 [Example 72, 2-(Trans-4-aminocyclohexylamino)-4-{3-ethyl-4-(quinolin-3-yl)-1H-pyrrolo[2,3-b]pyridin-1-yl}benzamide] | 6.59 | 6.96 | –
30 | CC(C)c1nn(-c2ccc(C(N)=O)c(NC3CCN(C(=O)c4cc(O)nc(O)n4)CC3)c2)c2nccc(-c3cnc4ccccc4c3)c12 [Example 78, 2-{1-(2,6-Dihydroxypyrimidine-4-carbonyl)piperidin-4-ylamino}-4-{3-isopropyl-4-(quinolin-3-yl)-1H-pyrazolo[3,4-b]pyridin-1-yl}benzamide] | 6.44 | 6.19 | –
